Experimental data from patent publication US20190010158A1, “ANTITUMOR EFFECT POTENTIATOR COMPRISING PYRROLOPYRIMIDINE COMPOUND” (TAIHO PHARMACEUTICAL CO., LTD, priority 2015, published 2019).
Blank lines part the entries; values can stand above or below the compound they belong to.

Columns and labels:
[1] = tested on: tumor cell lines shown in Table 44; assay: Example 12: combined use with platinum-based antitumor agent, cell growth inhibition test (IC50 ratio, CI); conditions: for IC50 Ratio: IC50 of Reference Example Compound 55 : IC50 of other compound = 1:value; for CI: at ED50; for Comprehensive Evaluation: combined use with Reference Example Compound 55
U266B1 = assay: Example 1: combined use with proteasome inhibitor, cell growth inhibition test (IC50 ratio, CI), U266B1; format: cell-based, human; conditions: for CI: at ED50
[2] = tested on: tumor cell lines shown in Table 48; assay: Example 14: combined use with alkylating agent, cell growth inhibition test (IC50 ratio, CI); format: cell-based; conditions: for IC50 Ratio: IC50 of Reference Example Compound 55 : IC50 of other compound = 1:value; for CI: at ED50; for Comprehensive Evaluation: combined use with Reference Example Compound 55
[3] = tested on: tumor cell lines shown in Table 30; assay: Example 5: combined use with steroid, cell growth inhibition test (IC50 ratio, CI); conditions: MM.1S; for IC50 Ratio: IC50 of Reference Example Compound 55 : IC50 of other compound = 1:value; for CI: at ED50; for Comprehensive Evaluation: combined use with Reference Example Compound 55
[4] = tested on: tumor cell lines shown in Table 50; assay: Example 15: combined use with anthracycline-based antitumor agent, cell growth inhibition test (IC50 ratio, CI); conditions: for IC50 Ratio: IC50 of Reference Example Compound 55 : IC50 of other compound = 1:value; for CI: at ED50; for Comprehensive Evaluation: combined use with Reference Example Compound 55
[5] = tested on: tumor cell lines shown in Table 46; assay: Example 13: combined use with microtubule inhibitor, cell growth inhibition test (IC50 ratio, CI); format: cell-based; conditions: A549; for IC50 Ratio: IC50 of Reference Example Compound 55 : IC50 of other compound = 1:value; for CI: at ED50; for Comprehensive Evaluation: combined use with Reference Example Compound 55
[6] = tested on: tumor cell lines shown in Table 32; assay: Example 6: combined use with immunomodulator, cell growth inhibition test (IC50 ratio, CI); format: cell-based; conditions: MM.1S; for IC50 Ratio: IC50 of Reference Example Compound 55 : IC50 of other compound = 1:value; for CI: at ED50; for Comprehensive Evaluation: combined use with Reference Example Compound 55
[7] = target: T1, NAE (heterodimer of APPBP1 and UBA3) (Homo sapiens, UniProt Q8TBC4); assay: Nedd8 conjugation inhibitory activity (AlphaScreen); format: biochemical; conditions: purified NAE, GST-UBC12, ATP, Biotin-Nedd8, reaction 90 minutes
T1 construct: amino acids 1 to 463 of human UBA3 protein; made in house; host or cells: Sf9 insect cells (baculovirus co-infection) for NAE; E. coli BL21 (DE3) for GST-UBC12
T1 sequence (Q8TBC4 1-463): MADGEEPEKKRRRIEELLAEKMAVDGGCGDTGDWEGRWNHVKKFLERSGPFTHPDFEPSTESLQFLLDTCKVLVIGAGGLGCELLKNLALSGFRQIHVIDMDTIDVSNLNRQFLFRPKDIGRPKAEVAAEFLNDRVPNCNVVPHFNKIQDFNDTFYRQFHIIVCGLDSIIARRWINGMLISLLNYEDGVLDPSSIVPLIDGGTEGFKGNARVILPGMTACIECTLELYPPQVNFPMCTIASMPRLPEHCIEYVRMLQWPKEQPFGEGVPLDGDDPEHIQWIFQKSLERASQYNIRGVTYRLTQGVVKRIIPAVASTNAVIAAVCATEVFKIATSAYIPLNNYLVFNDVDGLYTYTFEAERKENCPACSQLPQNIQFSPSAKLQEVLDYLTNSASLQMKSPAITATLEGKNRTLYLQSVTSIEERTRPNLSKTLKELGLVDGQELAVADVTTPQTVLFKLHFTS
T1 sequence (Q13564 1-534 partner): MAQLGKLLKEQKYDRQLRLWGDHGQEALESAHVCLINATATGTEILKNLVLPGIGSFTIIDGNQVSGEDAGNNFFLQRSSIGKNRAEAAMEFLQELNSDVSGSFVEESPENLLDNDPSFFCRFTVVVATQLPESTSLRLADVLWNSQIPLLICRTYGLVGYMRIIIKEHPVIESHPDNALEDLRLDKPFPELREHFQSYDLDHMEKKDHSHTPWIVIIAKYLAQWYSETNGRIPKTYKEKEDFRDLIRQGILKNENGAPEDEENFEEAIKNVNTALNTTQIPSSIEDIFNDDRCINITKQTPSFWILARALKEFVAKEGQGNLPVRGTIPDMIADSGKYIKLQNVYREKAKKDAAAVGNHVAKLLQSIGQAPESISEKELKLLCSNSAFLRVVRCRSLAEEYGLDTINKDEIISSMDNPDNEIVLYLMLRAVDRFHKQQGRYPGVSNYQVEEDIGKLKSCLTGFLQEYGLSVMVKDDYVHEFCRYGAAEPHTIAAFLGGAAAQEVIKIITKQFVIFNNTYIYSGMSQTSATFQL

[8] = tested on: human acute T lymphoblastic leukemia CCRF-CEM cell lines; assay: Cell growth inhibition 1 (CellTiter-Glo); format: cell-based; conditions: culture with test compound 72 hours
[9] = MV4-11, Reference Example Compound 55:other compound 1:3000
[10] = MV4-11, Reference Example Compound 55:other compound 1:9000
[11] = Reference Example Compound 55:other compound 1:1
[12] = Reference Example Compound 55:other compound 1:10

Compound: N.N.O=C([O-])C1(C(=O)[O-])CCC1.[Pt+2] [Carboplatin, carboplatin]
IC50 Ratio ([1]; A549): 38
CI ([1]; A549, Reference Example Compound 55:other compound 1:17): 0.41
CI ([1]; A549, Reference Example Compound 55:other compound 1:50): 0.87
Comprehensive Evaluation ([1]; A549): Slight

IC50 Ratio (U266B1; IC50 of Reference Example Compound 55 : IC50 of other compound = 1:value): 0.30
Compound: CC(C)C[C@H](NC(=O)[C@H](CCc1ccccc1)NC(=O)CN1CCOCC1)C(=O)N[C@@H](Cc1ccccc1)C(=O)N[C@@H](CC(C)C)C(=O)[C@@]1(C)CO1 [Carfilzomib, carfilzomib]
CI (U266B1; Reference Example Compound 55:other compound 1:015): 0.64
CI (U266B1; Reference Example Compound 55:other compound 1:045): 0.66
Comprehensive Evaluation (U266B1; combined use with Reference Example Compound 55): Synergism (0.3-0.7)

Compound: N.N.[Cl][Pt][Cl] [Cisplatin, cisplatin]
IC50 Ratio ([1]; HCT116): 343
CI ([1]; HCT116, Reference Example Compound 55:other compound 1:333): 0.44
CI ([1]; HCT116, Reference Example Compound 55:other compound 1:1000): 0.72
Comprehensive Evaluation ([1]; HCT116): Moderate

IC50 Ratio ([2]; MV4-11): 6582
Compound: CN(C)/N=N/c1[nH]cnc1C(N)=O [Dacarbazine, dacarbazine]
CI [2, 9]: 0.92
CI [2, 10]: 0.95
Comprehensive Evaluation ([2]; MV4-11): Additive (0.9-1.10)

IC50 Ratio [3]: 0.4
Compound: C[C@@H]1C[C@H]2[C@@H]3CCC4=CC(=O)C=C[C@]4(C)[C@@]3(F)[C@@H](O)C[C@]2(C)[C@@]1(O)C(=O)CO [Dexamethasone, dexamethasone]
CI ([3]; Reference Example Compound 55:other compound 1:0.3): 0.51
CI [3, 11]: 0.39
Comprehensive Evaluation [3]: Synergism (0.3-0.7)

Compound: COc1cccc2c1C(=O)c1c(O)c3c(c(O)c1C2=O)C[C@@](O)(C(=O)CO)C[C@@H]3O[C@H]1C[C@H](N)[C@H](O)[C@H](C)O1 [Doxorubicin, doxorubicin]
IC50 Ratio ([4]; HOS): 2
CI ([4]; HOS, Reference Example Compound 55:other compound 1:1.7): 0.77
CI ([4]; HOS, Reference Example Compound 55:other compound 1:5): 0.61
Comprehensive Evaluation ([4]; HOS): Moderate

IC50 Ratio [5]: 0.01
Compound: C=C1C[C@@H]2CC[C@@]34C[C@H]5O[C@H]6[C@@H](O3)[C@H]3O[C@H](CC[C@@H]3O[C@H]6[C@H]5O4)CC(=O)C[C@@H]3[C@@H](OC)[C@@H](C[C@H](O)CN)O[C@H]3C[C@H]3O[C@@H](CC[C@@H]1O2)C[C@@H](C)C3=C [Eribulin, eribulin]
CI ([5]; Reference Example Compound 55:other compound 1:0.01): 1.02
CI ([5]; Reference Example Compound 55:other compound 1:0.03): 0.89
Comprehensive Evaluation [5]: Additive (0.9-1.10)

Compound: O=P1(NCCCl)OCCCN1CCCl (centres unmarked) [Ifosfamide, ifosfamide]
IC50 Ratio ([2]; MV4-11): 6315
CI [2, 9]: 0.57
CI [2, 10]: 0.60
Comprehensive Evaluation ([2]; MV4-11): Synergism (0.3-0.7)

IC50 Ratio [6]: 14
Compound: Nc1cccc2c1CN(C1CCC(=O)NC1=O)C2=O (centres unmarked) [Lenalidomide, lenalidomide]
CI [6, 12]: 0.75
CI ([6]; Reference Example Compound 55:other compound 1:30): 0.69
Comprehensive Evaluation [6]: Moderate

Compound: O=C1[O][Pt]2([NH][C@@H]3CCCC[C@H]3[NH]2)[O]C1=O [Oxaliplatin, oxaliplatin]
IC50 Ratio ([1]; HL-60): 132
CI ([1]; HL-60, Reference Example Compound 55:other compound 1:100): 0.65
CI ([1]; HL-60, Reference Example Compound 55:other compound 1:300): 0.70
Comprehensive Evaluation ([1]; HL-60): Synergism (0.3-0.7)

IC50 Ratio [5]: 0.04
Compound: CC(=O)O[C@H]1C(=O)[C@@]2(C)[C@H]([C@H](OC(=O)c3ccccc3)[C@]3(O)C[C@H](OC(=O)[C@H](O)[C@@H](NC(=O)c4ccccc4)c4ccccc4)C(C)=C1C3(C)C)[C@]1(OC(C)=O)CO[C@@H]1C[C@@H]2O [Paclitaxel, paclitaxel]
CI ([5]; Reference Example Compound 55:other compound 1:0.02): 0.98
CI ([5]; Reference Example Compound 55:other compound 1:0.06): 0.77
Comprehensive Evaluation [5]: Additive (0.9-1.10)

IC50 Ratio ([4]; MM.1S): 8.4
Compound: NCCNc1ccc(NCCN)c2c1C(=O)c1ccncc1C2=O [Pixantrone, pixantrone]
CI ([4]; MM.1S, Reference Example Compound 55:other compound 1:3.7): 0.73
CI ([4]; MM.1S, Reference Example Compound 55:other compound 1:11): 0.84
Comprehensive Evaluation ([4]; MM.1S): Moderate

IC50 Ratio [6]: 3
Compound: Nc1cccc2c1C(=O)N(C1CCC(=O)NC1=O)C2=O (centres unmarked) [Poma1idomide, pomalidomide]
CI [6, 11]: 0.81
CI ([6]; Reference Example Compound 55:other compound 1:3): 0.66
Comprehensive Evaluation [6]: Moderate

IC50 Ratio [3]: 8.3
Compound: C[C@]12C=CC(=O)C=C1CC[C@@H]1[C@@H]2[C@@H](O)C[C@@]2(C)[C@H]1CC[C@]2(O)C(=O)CO [Prednisolone, prednisolone]
CI ([3]; Reference Example Compound 55:other compound 1:3.3): 0.54
CI [3, 12]: 0.44
Comprehensive Evaluation [3]: Synergism (0.3-0.7)

IC50 [7]: ≤ 0.003 µM
IC50 [8]: 1.8 nM
Compound: Nc1ncnc2c1c(C#Cc1c(F)cccc1F)cn2[C@@H]1O[C@H](COS(N)(=O)=O)[C@@H](O)[C@H]1O [Reference Example 132, [(2R,3S,4R,5R)-5-[4-Amino-5-[2-(2,6-difluorophenyl)ethynyl]pyrrolo[2,3-d]pyrimidin-7-yl]-3,4-dihydroxy-tetrahydrofuran-2-yl]methyl sulfamate]

IC50 Ratio [6]: 6603
Compound: O=C1CCC(N2C(=O)c3ccccc3C2=O)C(=O)N1 (centres unmarked) [Thalidomide, thalidomide]
CI ([6]; Reference Example Compound 55:other compound 1:900 (only ratio calculated)): 0.63
Comprehensive Evaluation [6]: Synergism (0.3-0.7)

IC50 Ratio ([2]; HOS): 0.2
Compound: COc1cc2c(cc1O)CCN[C@]21CS[C@@H]2c3c(OC(C)=O)c(C)c4c(c3[C@H](COC1=O)N1[C@@H]2[C@H]2c3c(cc(C)c(OC)c3O)C[C@@H]([C@@H]1O)N2C)OCO4 [Trabectedin, trabectedin]
CI ([2]; HOS, Reference Example Compound 55:other compound 1:0.1): 0.83
CI ([2]; HOS, Reference Example Compound 55:other compound 1:0.3): 1.01
Comprehensive Evaluation ([2]; HOS): Additive (0.9-1.10)
